# Patent publication US8168628B2, “Conjugated psychotropic drugs and uses thereof” (Ramot at Tel-Aviv University Ltd., priority 2001, dated 2012)
# Structures can show the parent of a compound that is named as a salt.
# Tests used:
# [1] = tested on: PC-3; assay: Proliferation test, PC-3 cells; assay type: cell-based; conditions: Homo sapiens, linear regression of survival percentage
# Protocol: (§1) Cell lines: Human prostate carcinoma (PC-3), human colon carcinoma (HT-29), murine melanoma (B-16) and its drug resistant subclone (B-16 MDR), mouse fibroblasts (3T3), myeloid leukemia (HL 60) and its drug resistant subclone (HL 60 MX2), endometrium cell line (MES SA) and its drug resistant subclone (MES DX5), jurkat T lymphoma and monocyte leukemia (U-937), were used in this study.
# (§2) Proliferation of cancer and normal cells: Proliferation was measured by neutral red assay or by a fluorometric assay quantitating DNA content. In the neutral red assay, the neutral red is absorbed by lysosomes, thus causing coloring of living cells. Quantitative analysis is performed by colorimetric assay (ELISA reader at 550 nm). In the fluorometric assay, alamar blue is used as a redox indicator. Alamar blue fluorescence was measured at an excitation wavelength of 544 nm and an emission wavelength of […] (FLUOstar BMG Lab Technologies, Offenburg, Germany).
# (§3) The cells were sub-cultured and the tested compounds were added thereto in increasing concentrations. The IC50 values were determined by linear regression of the survival percentage of the cells.
# [2] = tested on: rat myocytes
# Protocol: Toxicity: In vitro toxicity was determined by measuring the effect of the tested compounds (either known neuroleptics or the chemical conjugates of the invention) on primary cultures of neurons and whole brain neuron and glia cells obtained from the brains of neonatal mice. In vitro toxicity of perphenazine and its chemical conjugate AN 168 was also determined with rat myocytes. Acute toxicity in vivo as determined by the LD50 was evaluated on 2 months old ICR mice following the administration of a single intraperitoneal bolus-dose of drug.
# [3] = tested on: MES SA; assay: Proliferation test, MES SA cells; assay type: cell-based; conditions: Homo sapiens, linear regression of survival percentage
# Protocol: as §1, §2, §3
# [4] = tested on: prolactin; assay: Prolactin blood level in rats (enzyme immunometric assay); assay type: in vivo, rat
# Description: Prolactin secretion: Typical neuroleptics induce hyperprolactinemia, which is frequently associated with gallactorehea and impaired gonadal and sexual function. The measurement of the circulatory plasma prolactin level was therefore used as a sensitive biochemical marker for the psychotropic activity of the known neuroleptics and the chemical conjugates of the present invention, following intraperitoneal or oral administration thereof. Thus, blood was collected from the punctured eye orbital of rats under ether anesthesia and the assay was performed using Millennia, rat prolactin enzyme immunometric assay-kit (DPC, USA).
# [5] = tested on: 3T3; assay: Proliferation test, 3T3 fibroblasts; assay type: cell-based; conditions: Mus musculus, NIH3T3; linear regression of survival percentage
# Protocol: as §1, §2, §3
# [6] = tested on: C6 rat glioma cells; assay: DNA fragmentation in C6 rat glioma cells (propidium iodide flow cytometry); assay type: cell-based; conditions: Cisplatin 30 μM; perphenazine 25 and 50 μM; AN 168 25, 50 μM (FIG. 18)
# Protocol: Apoptosis and DNA fragmentation: Fragmentation of cell nuclei was studied by flow cytometric analysis of propidium iodide-stained cells. This analysis was performed using a FACScan (Becton Dickinson, Mountain View, Calif.) equipped with an argon ion laser adjusted to an excitation wavelength of 480 nm and with a Doublet Discrimination Module (DDM). Lysis II (Becton Dickinson) software was used for data acquisition. Apoptotic nuclear changes were evaluated according to the criteria of Nicolletti et al..
# The DNA fragmentation was determined by the propidium iodide flow cytometric method described hereinabove.
# [7] = tested on: mice; assay: Catalepsy in mice (bar between two cages); assay type: in vivo, mouse
# Protocol: Young adult male and female mice were purchased from Harlan, Israel. The animals were housed for 4-7 days under controlled conditions prior to experimentation. Experiments were conducted in a double blind procedure. In each experiment various treatment groups (about 10 animals each) were tested.
# Catalepsy in mice: The appearance of stereotypic cataleptic behavior in mice following the neuroleptic treatment was measured in two different sets of experiments.
# The catalepsy was determined using a system of two cages and a bar therebetween. The mouse was hung in the middle of the bar, and the percentage of animals reaching the target within 2 minutes was monitored 1 hour, 2 hours and 3 hours following the treatment.
# The catalepsy was determined using the system described hereinabove. The mouse was hung in the middle of the bar, and the time it took the animal to reach the target was measured.
# [8] = tested on: U-937; assay: Proliferation test, U-937 cells; assay type: cell-based; conditions: Homo sapiens, linear regression of survival percentage
# Protocol: as §1, §2, §3
# [9] = tested on: HT-29; assay: Proliferation test, HT-29 cells; assay type: cell-based; conditions: Homo sapiens, linear regression of survival percentage
# Protocol: as §1, §2, §3
structure (smiles),measurement,setting,value
"NCCCC(=O)OCCN1CCN(CCCN2c3ccccc3Sc3ccc(Cl)cc32)CC1 [AN-168, Perphenazine 4-aminobutyrate Trihydrochloride]",IC50,[1],45.5 µM
same,decrease in cells viability,[2],did not cause any decrease in cells viability at all concentrations
same,IC50,[3],18.2 µM
same,time at which prolactin blood level peaked,"[4]; i.p., measured at 0, 60 and 120 min after treatment",60 min
same,prolactin blood level compared with perphenazine,"[4]; oral, higher dose, 0, 90, 180 min (FIG. 12)",much higher as compared with animals treated with perphenazine
same,IC50,[5],25 µM
same,DNA fragmentation,[6],induced a dramatically increase in DNA fragmentation
same,catalepsy: percentage of animals reaching the target within 2 minutes,"[7]; adult male mice, 1.5 mg/kg perphenazine or equimolar dose (FIG. 7a)",substantially lower disability
same,catalepsy: time it took the animals to reach the target,"[7]; young female mice, 2.5 mg/kg perphenazine or equimolar dose, 2 and 3 hours after treatment (FIG. 7b)",much faster than the animals treated with perphenazine alone
same,IC50,[8],14.2 µM
same,IC50,[9],23.1 ± 9 µM
